Measurements: patent publication US20050119301A1, “Treatment of restenosis” (priority 2001, published 2005)
Entries after “also recorded” stand apart in the source; their conditions may differ.

What was measured:
[1] = test system: rat isolated aortic rings; experiment: Vasodilatory capacity in noradrenaline pre-constricted aortic rings and mechanism of action (Protocol 2a/2b); conditions: for vasodilatory response: effect of high KCl levels: KCl 40 mM; for vasodilatory response: effect of nitro-L-arginine (NOLA): NOLA 10 μM; for vasodilatory response: effect of ODQ: ODQ 10 μM; for vasodilatory response: effect of removal of the endothelium: denuded vs intact endothelium; for vasodilatory response: effect of indomethacin: indomethacin 10 μM
Method: (§1) Male Sprague-Dawley rats (250±50 g) were gassed with 80% CO2 and 20% O2 until killed. The thoracic aorta was excised and quickly placed in ice-cold Krebs modified solution composed of NaCl […], […] 4.7 mM, MgSO4 7H2O 1.17 mM, NaHCO3 25 mM, KH2PO4 1.18 mM, CaCl2 2.5 mM, glucose 11 mM and EDTA 0.03 mM. It was then trimmed of fat and connective tissue and cut into 2-3 mm wide rings. Each ring was mounted on two parallel stainless steel hooks in a single water-jacketed 3 ml organ bath containing modified Krebs solution maintained at 37° C. and bubbled with 95% O2 plus 5% CO2. The lower hook was attached to a movable support leg and the upper hook to an FTO3 force transducer (Grass Scientific Instruments, Mitutoyo, Japan) for isometric recordings. Changes in force were amplified (Quadbridge amplifier, Scientific Concepts Inc., Victoria, Australia) and recorded on a MacLab 8E data acquisition system (Adinstruments Pty Ltd., NSW, Australia) linked to an Apple computer (Apple Computer Inc, Cupertina, Calif.). Rings were set at an initial tension of 2 g and allowed to equilibrate for 30 minutes after which time they were re-set to 2 g tension before the commencement of each experimental protocol.
A full concentration response to noradrenaline was obtained. From this the concentration producing a submaximal contraction of approximately 80% was selected (0.03-0.3 μM). The ring was then constricted with this submaximal concentration and allowed to plateau before full concentration-relaxation curves were obtained to β-estradiol and Cpds. 5, 7, 8 and 12 and the vehicle DMSO (at equi-volume). Only one compound was studied with any one ring from any one animal.
Full relaxation curves were obtained to Cpds. 5, 7, 8 and 12 and β-estradiol in the absence and presence of the endothelium (rings were denuded of endothelium by gentle rotation of the lumen against a rough surface), the nitric oxide synthase inhibitor nitro-L-arginine (NOLA 10 μM; with the exception of Cpd. 8, due to limited supply of the compound), KCl 40 mM (to inhibit endothelium derived hyperpolarising factor), the cyclo-oxygenase inhibitor indomethacin (10 μM) and the soluble guanylate cyclase inhibitor 1H-[1,2,4]oxadiazolo[4,3-a]quinoxalin-1-one (ODQ; 10 μM). Only one compound with only one intervention was tested on any one ring from any one animal.
(§2) Contractile responses are expressed in g tension (mean+standard error of the mean). Dilatory responses are expressed as a percentage of the contractile force generated by the pre-constricting agent used. Individual concentration-response curves for noradrenaline and acetylcholine±the interventions used were fitted to a logistic equation of the form […] where E is the response, M is the maximum response and K is the concentration eliciting 50% of the maximum response (ie neg log EC50).

[2] = Peroxyl radical scavenging, AAPH-induced oxidation of linoleate; type: biochemical; design: dose or concentration left out as unconfirmed
Method: Peroxyl radicals are natural side-products of a number of enzymes, including lipoxygenases and cyclo-oxygenase. Peroxyl radicals were generated by the thermo-labile azo-initiator AAPH. AAPH-induced oxidation of linoleate was performed as described previously (Pryor et al., 1993), except that a lower linoleate concentration was used and SDS was omitted. An aliquot of a linoleate stock solution was added to PBS at 37° C. to give a final concentration of […]. Oxidation was initiated by the addition of AAPH (87.5 mM final concentration) in the absence and presence of either 10 mM of Cpd. 7, Cpd. 8 or Cpd. 12 or 500 mM ascorbate (positive control). Formation of linoleate hydroperoxide was monitored by UV 234 nm using a Perkin Elmer's UV/Vis Lambda 40 spectrophotometer. The test was performed twice as single analysis. An appropriate concentration of alcohol (ethanol and isopropanol; 0.13%-0.2% v/v) was included in the respective control samples.

[3] = test system: Human umbilical vein endothelial cells; experiment: Endothelial cell proliferation assay; type: cell-based; conditions: Cpd. 8 1-10 mg/ml; for endothelial cell proliferation (in words): 3 days, two donors, Cpd. 5, 7, 12 0.01-10 mg/ml; for toxicity to endothelial cells: Cpd. 12 0.01-10 mg/ml
Method: Human umbilical vein endothelial cells between passage 1 and 3 were used. Cells were grown in gelatin coated flasks in medium 199 with Earle's Salts supplemented with 20% foetal calf serum, 25 mg/ml endothelial cell growth supplement and 25 mg/ml heparin. Cells from two different donors were used.
5×10^3 cells in […] growth medium were plated into gelatin coated microtitre wells. The test compounds were added at plating. The cells were then incubated for 3 days and cell number determined by a calorimetric assay (CellTiter96 Aqueous assay, Promega). Results were compared to a standard curve performed in each experiment. Two different endothelial cell isolates were used and the assays were performed on two different days. The effect of isoflavone derivatives on the proliferation of human umbilical vein endothelial cells are shown for donor No. 1 (FIG. 15) and donor No. 2 (FIG. 16).

rat thoracic aorta = experiment: Contractile curves to noradrenaline in rat isolated aortic rings (Protocol 1); conditions: for dose dependency of the antagonising action on noradrenaline contraction: 0.1 and 1 μg/ml; for antagonising the contractile response to noradrenaline (in words): order of potency at 1 μg/ml; for y max, Noradrenaline + Test compound (B): mean ± SEM; for y max Difference (A − B): noradrenaline alone minus noradrenaline + compound
Method: as §1
Full concentration-contractile curves were obtained to noradrenaline (0.1 nM-[…]) in the absence and presence of β-estradiol (1 μg/ml); Cpd. 5 (0.1 and 1 μg/ml); Cpd. 7 (0.1 and 1 μg/ml); Cpd. 8 (0.1 and 1 μg/ml) and Cpd. 12 (1 μg/ml) and the vehicle equi-volume DMSO. Only one compound at any one concentration was tested on any one ring from any one animal.
as §2

LDL = LDL antioxidation test (CuCl2-initiated LDL oxidation, lag time); type: biochemical, human; conditions: Table 3, 10 μM; for Lag Time: control 20 min

SMILES | vasodilatory response: effect of high KCl levels [1] | vasodilatory response: effect of nitro-L-arginine (NOLA) [1] | vasodilatory response: effect of ODQ [1] | vasodilatory response: effect of removal of the endothelium [1] | vasodilatory response: effect of indomethacin [1] | inhibition of AAPH-induced oxidation of linoleic acid, 234 nm absorbency (in words) [2] | endothelial cell proliferation (in words) [3] | dose dependency of the antagonising action on noradrenaline contraction (rat thoracic aorta) | antagonising the contractile response to noradrenaline (in words) (rat thoracic aorta) | y max, Noradrenaline + Test compound (B) (rat thoracic aorta; test compound 0.1 μg/ml) [g tension] | y max Difference (A − B) (rat thoracic aorta; test compound 0.1 μg/ml) [g tension] | y max, Noradrenaline + Test compound (B) (rat thoracic aorta; test compound 1 μg/ml) [g tension] | y max Difference (A − B) (rat thoracic aorta; test compound 1 μg/ml) [g tension] | % Increase in Time (LDL) [%] | Lag Time (LDL) [min] | toxicity to endothelial cells [3]
Oc1ccc(C2COc3cc(O)ccc3C2O)cc1 (stereo not drawn) [Cpd. 7] | inhibited | trend towards inhibition of these responses by NOLA but this was not statistically significant | inhibited | inhibited | did not influence | As for peroxyl radicals, neither Cpd. 7 nor Cpd. 8 were able to inhibit | no appreciable antiproliferative action | dose dependent | active but less potent than β-estradiol; also recorded: equipotent but less potent than Cpd. 12 | 1.41 ± 0.13 | 0.25 ± 0.25 | 1.26 ± 0.34 | 1.38 ± 0.27 | 100 | 50 | –
Oc1ccc(C2COc3cc(O)ccc3C2O)cc1 (stereo not drawn) [Cpd. 8] | inhibited | – | but not by ODQ | inhibited | potentiated | As for peroxyl radicals, neither Cpd. 7 nor Cpd. 8 were able to inhibit | inhibited cellular proliferation | dose dependent | active but less potent than β-estradiol; also recorded: the least potent | 1.34 ± 1.20 | 0.56 ± 0.15 | 0.86 ± 0.31 | 0.69 ± 0.28 | >600 | >140 | did not cause toxicity
O=C1c2ccc(O)cc2OCC1c1ccc(O)cc1 (stereo not drawn) [Cpd. 5] | inhibited | inhibited | inhibited | inhibited | did not influence | – | no apparent effect on endothelial cell proliferation | dose dependent | active but less potent than β-estradiol; also recorded: equipotent but less potent than Cpd. 12 | 1.50 ± 0.32 | 0.81 ± 0.25 | 1.13 ± 0.20 | 1.02 ± 0.24 | 0 | 20 | –
Oc1ccc(C2=Cc3ccc(O)cc3OC2)cc1 [Cpd. 12] | inhibited | – | – | inhibited | – | significantly inhibited the time-dependent increase in 234 nm absorbency | inhibited cellular proliferation | – | comparable to β-estradiol; also recorded: most effective and comparable to 170-estradiol | – | – | 0.80 ± 0.36 | 2.27 ± 0.68 | >600 | >140 | did not cause toxicity
